Patent publication US8633242B2, “Benzylidene indanones and processes for preparation and use thereof” (Council of Scientific and Industrial Research, priority 2011, dated 2014)
Like-named read-outs stand apart in the source and are kept apart here.

What was measured:
[1] = tested on: various human cancer cell lines; assay: Cytotoxicity against various human cancer cell lines (summary statements); format: cell-based
Description: The benzylidene analogues were evaluated by Sulphorhodamine B Assay as per reported method [Skehan et al., J. Natl. Cancer Inst. 1990, 82, 1107]. The human cancer cell lines procured from National Cancer institute, Frederick, U.S.A. were used in present study. Cells were grown in tissue culture flasks in complete growth medium (RPMI-1640 medium with 2 mM glutamine, pH 7.4 supplemented with 10% fetal bovine serum, 100 μg/ml streptomycin and 100 units/ml penicillin) in a carbon dioxide incubator (37° C., 5% CO2, 90% RH). The cells at subconfluent stage were harvested from the flask by treatment with trypsin (0.05% in PBS (pH 7.4) containing 0.02% EDTA). Cells with viability of more than 98%, as determined by trypan blue exclusion, were used for determination of cytotoxicity. The cell suspension required concentration of cells was prepared in complete growth medium. Stock solution of 2×10^−2 M of compounds were prepared in DMSO and further dilution was carried out complete growth medium containing 50 μg/ml of gentamycin to obtained working test solution of required concentration. In vitro cytotoxicity against various human cancer cell lines was determined using 96-well cell culture plates. […] Cell growth was measured by staining with sulforhodamine B dye. […] The optical density (OD) was recorded on ELISA reader at 540 nm. […]

Swiss albino mice = conditions: mouse, in vivo; for ALKP / Body weight / Haemoglobin / SGOT / SGPT / Serum creatinine / Serum total cholesterol / Serum triglycerides: po
Description: In view of potent anti-cancer activity of compound 8 in in-vitro model, acute oral toxicity of the same was carried out in Swiss albino mice for its further development into drug product. For the study, 30 mice (15 male and 15 female) were taken and divided into five groups comprising 3 male and 3 female mice in each group weighing between 20-25 g. The animals were maintained at 22±5° C. with humidity control and also on an automatic dark and light cycle of 12 hours. The animals were fed with the standard rat feed and provided ad libitum drinking water. Mice of group 1 were kept as control and animals of groups […] were kept as experimental. The animals were acclimatized for 7 days in the experimental environment prior to the actual experimentation. The test compound was suspended by ultrasonication in cremophore EL (20% in distilled water) using traces of ethanol as a co-solvent and was given at 5, 50, 300 and 1000 mg/kg body weight to animals of groups 2, 3, 4 and 5 respectively. Control animals received only vehicle.
The animals were checked for mortality and any signs of ill health at hourly interval on the day of administration of drug and there after a daily general case side clinical examination was carried out including changes in skin, mucous membrane, eyes, occurrence of secretion and excretion and also responses like lachrymation, pilo-erection respiratory patterns etc. Also changes in gait. posture and response to handling were also recorded (Allan at al., 2007). In addition to observational study, body weights were recorded and blood and serum samples were collected from all the animals on 7th day after experiment and were analysed for total RBC, WBC, differential leucoyte count haemoglobin percentage and biochemical parameters like total cholesterol, triglycerides, creatinine, SGPT and SGOT activity. The animals were then sacrificed and were necropsed for any gross pathological changes. Weights of vital organs like liver, heart, kidney etc. were recorded (Chanda et al., 2009).

HCT (Colon) = assay: Sulphorhodamine B cytotoxicity assay, HCT; format: cell-based, human
Description: The benzylidene analogues were evaluated by Sulphorhodamine B Assay as per reported method [Skehan et al., J. Natl. Cancer Inst. 1990, 82, 1107]. The human cancer cell lines procured from National Cancer institute, Frederick, U.S.A. were used in present study. Cells were grown in tissue culture flasks in complete growth medium (RPMI-1640 medium with 2 mM glutamine, pH 7.4 supplemented with 10% fetal bovine serum, 100 μg/ml streptomycin and 100 units/ml penicillin) in a carbon dioxide incubator (37° C., 5% CO2, 90% RH). The cells at subconfluent stage were harvested from the flask by treatment with trypsin (0.05% in PBS (pH 7.4) containing 0.02% EDTA). Cells with viability of more than 98%, as determined by trypan blue exclusion, were used for determination of cytotoxicity. The cell suspension required concentration of cells was prepared in complete growth medium. Stock solution of 2×10^−2 M of compounds were prepared in DMSO and further dilution was carried out complete growth medium containing 50 μg/ml of gentamycin to obtained working test solution of required concentration. In vitro cytotoxicity against various human cancer cell lines was determined using 96-well cell culture plates. The 100 μl of cell suspension was added to each well of the 96-well cell culture plates. The cells were allowed to grow in CO2 incubator (37° C., 5% CO2, 90% RH) for 24 hours. The test materials in complete growth medium (100 μl) were added after 24 hours incubation to the wells containing cell suspension. The plates were further incubated for 48 hours (37° C. in an atmosphere of 5% CO2 and 90% relative humidity) in a carbon dioxide incubator after addition of test material and then the cell growth was stopped by gently layering trichloroacetic acid (50% TCA, 50 μl) on top of the medium in all the wells. The plates were incubated at 4° C. for one hour to fix the cells attached to the bottom of the wells. The liquid of all the wells was gently pipetted out and discarded. The plates were washed five times with distilled water to remove TCA, growth medium low molecular weight metabolites, serum proteins etc. and air-dried. Cell growth was measured by staining with sulforhodamine B dye. The adsorbed dye was dissolved in Tris-HCl Buffer (100 μl/well, 0.01M, pH 10.4) and plates were gently stirred for 10 minutes on a mechanical stirrer. The optical density (OD) was recorded on ELISA reader at 540 nm. 5-Fluorouracil, Paclitaxel (Taxol), Mitomycin-c and Adriamycin were used as positive controls.

With `COc1cc(C2/C(=C/c3ccc4c(c3)OCO4)C(=O)c3cc(OC)c(OC)c(OC)c32)cc(OC)c1OC` (racemic) [Compound 8, 2-(3,4-Methylenedioxybenzylidine), 3-(3,4,5-trimethoxyphenyl), 4,5,6-trimethoxyindanone] the “anticancer activity against human cancer cell lines, in words” value [1] was “exhibits anticancer activity”, the “observational changes, morbidity and mortality” value (Swiss albino mice; 300 mg/kg) was “No observational changes, morbidity and mortality” and the ALKP (Swiss albino mice; 5 mg/kg) was 82.51 ± 3.04 U/L. The Body weight (Swiss albino mice; 5 mg/kg) was 30.38 ± 0.77 g, the Haemoglobin (Swiss albino mice; 5 mg/kg) was 11.31 ± 1.14 g/dL and the SGOT (Swiss albino mice; 5 mg/kg) was 18.74 ± 1.54 U/L. The SGPT (Swiss albino mice; 5 mg/kg) was 6.90 ± 0.17 U/L, the Serum creatinine (Swiss albino mice; 5 mg/kg) was 0.53 ± 0.04 mg/dL and the Serum total cholesterol (Swiss albino mice; 5 mg/kg) was 109.42 ± 5.46 mg/dL. It also gave a Serum triglycerides (Swiss albino mice; 5 mg/kg) of 112.69 ± 3.75 mg/dL, an ALKP (Swiss albino mice; 50 mg/kg) of 94.24 ± 8.83 U/L and a Body weight (Swiss albino mice; 50 mg/kg) of 28.37 ± 1.42 g. It also gave a Haemoglobin (Swiss albino mice; 50 mg/kg) of 12.93 ± 0.98 g/dL, an SGOT (Swiss albino mice; 50 mg/kg) of 20.66 ± 1.15 U/L and an SGPT (Swiss albino mice; 50 mg/kg) of 9.77 ± 0.77 U/L. The Serum creatinine (Swiss albino mice; 50 mg/kg) was 0.45 ± 0.05 mg/dL, the Serum total cholesterol (Swiss albino mice; 50 mg/kg) was 125.69 ± 5.90 mg/dL and the Serum triglycerides (Swiss albino mice; 50 mg/kg) was 90.62 ± 8.41 mg/dL. For the same compound, the ALKP (Swiss albino mice; 300 mg/kg) was 90.11 ± 5.42 U/L, the Body weight (Swiss albino mice; 300 mg/kg) was 29.35 ± 1.63 g and the Haemoglobin (Swiss albino mice; 300 mg/kg) was 11.46 ± 0.76 g/dL. It also gave an SGOT (Swiss albino mice; 300 mg/kg) of 26.55 ± 3.23 U/L, an SGPT (Swiss albino mice; 300 mg/kg) of 9.16 ± 1.14 U/L and a Serum creatinine (Swiss albino mice; 300 mg/kg) of 0.56 ± 0.07 mg/dL. It also gave a Serum total cholesterol (Swiss albino mice; 300 mg/kg) of 117.57 ± 3.45 mg/dL, a Serum triglycerides (Swiss albino mice; 300 mg/kg) of 113.15 ± 3.65 mg/dL and a Body weight (Swiss albino mice; 1000 mg/kg) of 30.69 ± 0.83 g. It also gave a Haemoglobin (Swiss albino mice; 1000 mg/kg) of 12.21 ± 1.46 g/dL, an SGOT (Swiss albino mice; 1000 mg/kg) of 19.38 ± 3.49 U/L and a Serum creatinine (Swiss albino mice; 1000 mg/kg) of 0.42 ± 0.09 mg/dL. The Serum total cholesterol (Swiss albino mice; 1000 mg/kg) was 118.60 ± 6.07 mg/dL, the Serum triglycerides (Swiss albino mice; 1000 mg/kg) was 97.44 ± 6.96 mg/dL and the “activity against HCT (Colon) cancer cell line, in words” value (HCT (Colon)) was “better activity”. The IC50 (HCT (Colon); Homo sapiens, SRB assay, 48 hours incubation, read-out: Human cancer cell lines IC50, HCT (Colon)) was 100 nM.
